Measurements published in US10208033B2, “β-carboline, dihydro-β-carboline and tetrahydro-β-carboline alkaloid derivatives and preparation methods same and use in aspects of preventing and treating plant viruses, fungicides and insecticides” (NANKAI UNIVERSITY, priority 2013, dated 2019).

Tests used:
Macrophoma kawatsukai = assay: Fungicidal (bactericidal) activity in vitro, PDA colony diameter; type: cell-based; settings: 50 mg/kg
Fusarium graminearumt = assay: microbe, parasite or virus in culture; type: cell-based; settings: 50 mg/kg
Bipolaria maydis = assay: organism not typed; type: cell-based; settings: 50 mg/kg
[1] = system: tobacco mosaic virus (TMV); assay: Anti-TMV in vivo protective effect; set-up: species or system tobacco mosaic virus (host Nicotiana tabacum L.cv.Xanthi NN)
Alternaria solani = assay: Fungicidal (bactericidal) activity in vitro, PDA colony diameter; type: cell-based; settings: 50 mg/kg
[2] = system: tobacco mosaic virus (TMV); assay: Anti-TMV in vivo therapeutic effect; set-up: species or system tobacco mosaic virus (host Nicotiana tabacum L.cv.Xanthi NN)
mosquito larvae = assay: whole plant or invertebrate; settings: in vivo
Summary of the method: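 Compound dissolved in acetone (or other solvent) to a 1000 ppm stock and diluted in water to 5 ppm. Ten Culex pipiens pallens larvae at the start of the fourth instar, laboratory-reared, added per beaker; solvent-only aqueous control.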

[3] = system: tobacco mosaic virus (TMV); assay: Anti-TMV in vitro effect (half-leaf soaking); type: cell-based, tobacco mosaic virus (host Nicotiana tabacum L.cv.Xanthi NN)
cotton bollworms = assay: whole plant or invertebrate; settings: in vivo
Experimental: Experimental method of cotton bollworms: feed and drug mixing method: measure 3 mL of prepared solution and add it to about 27 g of newly prepared feed, thereby obtaining needed concentration through dilution by 10 times.

[4] = system: tobacco mosaic virus (TMV); assay: Anti-TMV in vivo inactivation; set-up: species or system tobacco mosaic virus (host Nicotiana tabacum L.cv.Xanthi NN)
corn borers = settings: in vivo
Cercospora arachidicola = assay: Fungicidal (bactericidal) activity in vitro, PDA colony diameter; type: cell-based; settings: 50 mg/kg
cucumber fusarium wilt = assay: as above; type: cell-based; settings: 50 mg/kg
[5] = system: Colletotrichum orbiculare; assay: as above; type: cell-based; settings: 50 mg/kg
armyworms = type: in vivo; settings: concentration 600 mg/kg
Rhizoctonia solani = assay: Fungicidal (bactericidal) activity in vitro, PDA colony diameter; type: cell-based; settings: 50 mg/kg
Rhizoctonia cereali = assay: as above; type: cell-based; settings: 50 mg/kg
Fusarium fujikuroi = assay: as above; type: cell-based; settings: 50 mg/kg
potato late blight = assay: microbe, parasite or virus in culture; type: cell-based
Sclerotinia scleotiorum = assay: Fungicidal (bactericidal) activity in vitro, PDA colony diameter; type: cell-based; settings: 50 mg/kg
Botrytis cinerea = assay: as above; type: cell-based; settings: 50 mg/kg
Phytophthora capsici = assay: as above; type: cell-based; settings: 50 mg/kg

SMILES | Bactericidal activity (%) Macrophoma kawatsukai (Macrophoma kawatsukai) | Bactericidal activity (%) Fusarium graminearumt (Fusarium graminearumt) | Bactericidal activity (%) Bipolaria maydis (Bipolaria maydis) | Relative inhibition rate (%) In vivo protection ([1]; treatment dose 100 μg/mL) | Relative inhibition rate (%) In vivo protection ([1]; treatment dose 500 μg/mL) | Bactericidal activity (%) Alternaria solani (Alternaria solani) | Relative inhibition rate (%) In vivo therapy ([2]; treatment dose 100 μg/mL) | Relative inhibition rate (%) In vivo therapy ([2]; treatment dose 500 μg/mL) | Mosquito larvae Mortality (%) (mosquito larvae) | Relative inhibition rate (%) In vitro activity ([3]; treatment dose 100 μg/mL) | Relative inhibition rate (%) In vitro activity ([3]; treatment dose 500 μg/mL) | Cotton bollworm Mortality (%) (cotton bollworms) | Relative inhibition rate (%) In vivo inactivation ([4]; treatment dose 100 μg/mL) | Relative inhibition rate (%) In vivo inactivation ([4]; treatment dose 500 μg/mL) | Corn borer Mortality (%) (corn borers) | Bactericidal activity (%) Cercospora arachidicola (Cercospora arachidicola) | Bactericidal activity (%) Cucumber fusarium wilt (cucumber fusarium wilt) | Bactericidal activity (%) Colletotrichum orbiculare [5] | Armyworm Mortality (%) (armyworms) | Bactericidal activity (%) Rhizoctonia solani (Rhizoctonia solani) | also measured
C[C@@H]1N[C@H](C(=O)NN=Cc2ccncc2)Cc2c1[nH]c1ccccc21 [Ic-15, (1S, 3S)—N′-(pyridine-4-methylene)-1-methyl-2,3,4,9-tetrahydropyridino [3,4-b] indol-3-formylhydrazine] | 52.8% | 27.6% | 28.0% | 0% | 37.5% | 15.0% | 12.9% | 39.6% | 30% | 0% | 36.6% | 15% | 8.8% | 43.4% | 20% | 35.3% | 23.1% | 29.6% | 15% | 23.7% | Bactericidal activity (%) Rhizoctonia cereali (Rhizoctonia cereali): 66.7%; Bactericidal activity (%) Fusarium fujikuroi (Fusarium fujikuroi): 21.4%; Bactericidal activity (%) potato late blight (potato late blight): 24.0%; Bactericidal activity (%) Sclerotinia scleotiorum (Sclerotinia scleotiorum): 64.7%; Bactericidal activity (%) Botrytis cinerea (Botrytis cinerea): 36.4%; Bactericidal activity (%) Phytophthora capsici (Phytophthora capsici): 28.9%
C[C@@H]1N[C@H](C(=O)NN=Cc2cccnc2)Cc2c1[nH]c1ccccc21 [Ic-16, (1S, 3S)—N′-(pyridine-3-methylene)-1-methyl-2,3,4,9-tetrahydropyridino [3,4-b] indol-3-formylhydrazine] | 83.3% | 62.1% | 32.0% | 0% | 33.6% | 15.0% | 5.7% | 36.9% | 40% | 0% | 33.3% | 10% | 11.2% | 41% | 30% | 41.2% | 38.5% | 40.7% | 20% | 39.5% | Bactericidal activity (%) Rhizoctonia cereali (Rhizoctonia cereali): 80.4%; Bactericidal activity (%) Fusarium fujikuroi (Fusarium fujikuroi): 50.0%; Bactericidal activity (%) potato late blight (potato late blight): 52.0%; Bactericidal activity (%) Sclerotinia scleotiorum (Sclerotinia scleotiorum): 35.3%; Bactericidal activity (%) Botrytis cinerea (Botrytis cinerea): 54.5%; Bactericidal activity (%) Phytophthora capsici (Phytophthora capsici): 26.3%
C[C@@H]1N[C@H](C(=O)NN=Cc2ccccn2)Cc2c1[nH]c1ccccc21 [Ic-17, (1S, 3S)—N′-(pyridine-2-methylene)-1-methyl-2,3,4,9-tetrahydropyridino [3,4-b] indol-3-formylhydrazine] | 75.0% | 20.7% | 16.0% | 0% | 31.4% | 20.0% | 0% | 36.8% | 50% | 0% | 32.7% | 20% | 9.2% | 38.9% | 20% | 23.5% | 23.1% | 25.9% | 25% | 21.1% | Bactericidal activity (%) Rhizoctonia cereali (Rhizoctonia cereali): 41.2%; Bactericidal activity (%) Fusarium fujikuroi (Fusarium fujikuroi): 21.4%; Bactericidal activity (%) potato late blight (potato late blight): 12.0%; Bactericidal activity (%) Sclerotinia scleotiorum (Sclerotinia scleotiorum): 5.9%; Bactericidal activity (%) Botrytis cinerea (Botrytis cinerea): 36.4%; Bactericidal activity (%) Phytophthora capsici (Phytophthora capsici): 18.4%
